Test results: patent US20240122878A1 (priority 2021, published 2024)
“And” between values parts separate entries of the source, which are not always exact repeats. Equal values may be shown once.

Tests used:
in vitro [1] = settings: 37° C., 10 μM; for half-life at 10 μM / half-life: simulated gi fluid
Protocol: Gastrointestinal solution stability was performed along with the Caco-2 cell permeability assay study.

Caco-2 monolayer = experiment: in vitro; settings: for Percent Recovery, Rep. 1-3: 10 μM
Source text: (§1) Based on historical data obtained in the experimental model, the mean permeability value (Papp) for each reference compound was expected to fall within the predetermined specifications.
(§2) Fluorescein was used as the zero-permeability marker in all Caco-2 cell assays as a quality control for the integrity of the Caco-2 monolayer. […] Well-defined criteria (known or readily available to those of ordinary skill in the art) have been established for the acceptance of fluorescein results to validate monolayer integrity.
(§3) Testing concentrations for the in vitro permeability assessment were determined at 1%, 10%, and 100% of the highest strength dissolved in 250 mL. […]

in vitro [2] = settings: human; for recovery: Caco-2, Percent Recovery, 10 μM
Source text: as §1, §2, §3

[3] = Caco-2, pH 6.5, Permeability, Mean
[4] = Caco-2, pH 6.5, Permeability, Rep. 1-3
[5] = Caco-2, pH 6.5, Permeability, Mean, A-B, Caco-2, pH 6.5/7.4, 10 μM
[6] = Caco-2, pH 6.5, Permeability, Rep. 1-3, A-B, Caco-2, pH 6.5/7.4, 10 μM
[7] = Caco-2, pH 6.5, Permeability, Rep. 1-3, B-A, Caco-2, pH 6.5/7.4, 10 μM

## CC(C)[N+](C)(CCOC(=O)C1c2ccccc2Oc2ccccc21)C(C)C [Propanthaline, reference compound]
In vitro [1]; simulated gastric fluid
  Half-Life, Mean: >60 min
  Half-Life, Rep. 1-3: >60 min
In vitro [1]; simulated intestinal fluid
  Half-Life, Mean: >180 min
  Half-Life, Rep. 1-3: 253.1 min and 251.2 min and 227.0 min

## COc1cc2c(c(OC)c1OC)-c1ccc(OC)c(=O)cc1[C@@H](NC(C)=O)CC2 [Colchicine]
Caco-2 monolayer; A-B
  Percent Recovery, Rep. 1-3: 78%
Caco-2 monolayer; B-A
  Percent Recovery, Rep. 1-3: 94%
In vitro [2]; Mean, B-A
  recovery: 91%
In vitro [2]; Rep. 1-3, A-B
  recovery: 88%
In vitro [2]; Rep. 1-3, B-A
  recovery: 88%
In vitro [2]; [3]
  Papp A→B: 0.3 ×10⁻⁶ cm/s
  Papp B→A: 7.3 ×10⁻⁶ cm/s
In vitro [2]; [4]
  Papp A→B: 0.31 ×10⁻⁶ cm/s
  Papp B→A: 7.69 ×10⁻⁶ cm/s

## CC(C)NCC(O)COc1cccc2ccccc12 (stereo not shown) [Propranolol]
Caco-2 monolayer; A-B
  Percent Recovery, Rep. 1-3: 99%
Caco-2 monolayer; A-B, Caco-2, pH 6.5/7.4, 10 μM
  Permeability, Rep. 1-3: 40.35 10^−6 cm/s and 36.94 10^−6 cm/s
Caco-2 monolayer; B-A
  Percent Recovery, Rep. 1-3: 115% and 102%
Caco-2 monolayer; human, Caco-2, pH 6.5
  Permeability, Rep. 1-3: 45.79 10^−6 cm/s
In vitro [2]; Mean, A-B
  recovery: 104%
In vitro [2]; Mean, B-A
  recovery: 108%
In vitro [2]; Rep. 1-3, A-B
  recovery: 106%
In vitro [2]; Rep. 1-3, B-A
  recovery: 106%
In vitro [2]; [3]
  Papp B→A: 47.5 ×10⁻⁶ cm/s
In vitro [2]; [5]
  Papp A→B: 40.9 ×10⁻⁶ cm/s
In vitro [2]; [4]
  Papp B→A: 48.1 ×10⁻⁶ cm/s
In vitro [2]; [6]
  Papp A→B: 45.4 ×10⁻⁶ cm/s
In vitro [2]; [7]
  Papp B→A at 10 μM: 48.8 ×10⁻⁶ cm/s

## O=C(O)CCCc1ccc(N(CCCl)CCCl)cc1 [Chlorambucil, reference compound]
In vitro [1]; Mean, simulated intestinal fluid
  half-life at 10 μM: 26 min
In vitro [1]; Rep. 1-3, simulated intestinal fluid
  half-life at 10 μM: 26.2 min
In vitro [1]; simulated intestinal fluid
  Half-Life, Rep. 1-3: 25.7 min

## CC(CCc1ccccc1)NCC(O)c1ccc(O)c(C(N)=O)c1 (stereo not shown) [Labetalol]
In vitro [2]; Mean, A-B
  recovery: 117%
In vitro [2]; Rep. 1-3, A-B
  recovery: 118%
In vitro [2]; [5]
  Papp A→B: 19.6 ×10⁻⁶ cm/s
In vitro [2]; Caco-2, pH 6.5, Permeability, Mean, B-A, Caco-2, pH 6.5/7.4, 10 μM
  Papp B→A: 49.3 ×10⁻⁶ cm/s
In vitro [2]; [6]
  Papp A→B: 20.2 ×10⁻⁶ cm/s
In vitro [2]; [7]
  Papp B→A: 48.7 ×10⁻⁶ cm/s

## CC[C@H]1OC(=O)[C@H](C)[C@@H](O[C@H]2C[C@@](C)(OC)[C@@H](O)[C@H](C)O2)[C@H](C)[C@@H](O[C@@H]2O[C@H](C)C[C@H](N(C)C)[C@H]2O)[C@](C)(O)C[C@@H](C)C(=O)[C@H](C)[C@@H](O)[C@]1(C)O [Erythromycin, reference compound]
In vitro [1]; simulated gastric fluid
  Half-Life, Rep. 1-3: 6.5 min
In vitro [1]; Mean, simulated gastric fluid
  half-life: 6 min
In vitro [1]; Rep. 1-3, simulated gastric fluid
  half-life: 6.4 min

## CNC(=C[N+](=O)[O-])NCCSCc1ccc(CN(C)C)o1 [Ranitidine]
Caco-2 monolayer; A-B
  Percent Recovery, Rep. 1-3: 99%
Caco-2 monolayer; B-A
  Percent Recovery, Rep. 1-3: 96% and 92%
In vitro [2]; Mean, A-B
  recovery: 101%
In vitro [2]; Rep. 1-3, A-B
  recovery: 100%
In vitro [2]; [3]
  Papp A→B: 0.7 ×10⁻⁶ cm/s
  Papp B→A: 2.4 ×10⁻⁶ cm/s
In vitro [2]; [4]
  Papp A→B: 0.8 ×10⁻⁶ cm/s
  Papp B→A: 2.54 ×10⁻⁶ cm/s
